{
  "source": "patent US7374905B2",
  "about": "“Medium composition, method and device for selectively enhancing the isolation of anaerobic microorganisms contained in a mixed sample with facultative microorganisms” (Oxyrase, Inc., priority 2000, dated 2008)",
  "key": {"[1]": {"tested_on": "B. fragilis mixed with E. coli and P. mirabilis", "type": "cell-based"}, "[2]": {"tested_on": "C. perfringens mixed with E. coli and P. mirabilis", "type": "cell-based"}, "[3]": {"tested_on": "P. levii mixed with E. coli and P. mirabilis", "type": "cell-based"}, "[4]": {"tested_on": "P. anaerobius mixed with E. coli and P. mirabilis", "type": "cell-based"}, "[5]": {"tested_on": "F. nucleatum mixed with E. coli and P. mirabilis", "type": "cell-based"}, "Fusobacterium nucleatum": {"tested_on": "Fusobacterium nucleatum", "conditions": "48 hours, cultures of Table 4"}, "[6]": {"tested_on": "Peptostreptococcus anaerobius", "conditions": "48 hours, cultures of Table 4"}},
  "data": [
    {"smiles": "[N-]=[N+]=[N-]", "note": "[Azide, sodium azide]", "values": [
      {"measurement": "Lowest concentration of azide in the tube that successfully separated the anaerobe", "setting": "[1]", "result": 0.2, "unit": "mg/mL"},
      {"measurement": "Lowest concentration of azide in the tube that successfully separated the anaerobe", "setting": "[2]", "result": 0.1, "unit": "mg/mL"},
      {"measurement": "Lowest concentration of azide in the tube that successfully separated the anaerobe", "setting": "[3]", "result": 0.1, "unit": "mg/mL"},
      {"measurement": "Lowest concentration of azide in the tube that successfully separated the anaerobe", "setting": "[4]", "result": 0.1, "unit": "mg/mL"},
      {"measurement": "Lowest concentration of azide in the tube that successfully separated the anaerobe", "setting": "[5]", "result": 0.1, "unit": "mg/mL"},
      {"measurement": "Concentration of azide that inhibited growth in anoxic broth", "setting": "Escherichia coli", "result": "≤ 0.1", "unit": "mg/mL"},
      {"measurement": "Concentration of azide at which swarming is inhibited", "setting": "Proteus mirabilis", "result": "above 0.1 mg/ml"},
      {"measurement": "Level of growth (below visible turbidity)", "setting": "Fusobacterium nucleatum", "result": "less than 10^7 CFU/ml"},
      {"measurement": "Level of growth (below visible turbidity)", "setting": "[6]", "result": "less than 10^7 CFU/ml"}
    ]}
  ]
}
